For data set [1] the following is noted: process described in the prior art (WO2018/093953); cited from earlier work.
Data set [2] can be described thus: Particle size distribution determination by image analysis (Morphologi G3). It counts as physicochemical. From the text: The term “particle size distribution” (PSD) as used herein refers to the mean particle size from a statistical distribution of a range of particle sizes. The Compound I-HCl form 2 particle size distribution, in particular d90, d50, d10 values, may be determined by well-known methods of the prior art such as sieve analysis, laser diffraction methods, image analysis or optical counting methods.
As used herein, by “d90 particle size” refers to the particle diameter wherein 90 percent of the particle population has a diameter below such value.
As used herein, by “d50 particle size” refers to the median particle diameter, wherein half of the particle population has a diameter below such value.
As used herein, by “d10 particle size” refers to the particle diameter wherein 10 percent of the particle population has a diameter below such value.
The analysis of particle size distribution of each batch was performed by an image analysis method on a Morphologi G3 Automated Particle Characterization System (Malvern PaNanalytical) with a sample Dispersion Unit SDU Glass Plate (180×110 mm); the instrument automatically process the collected data using the software Morphologi ver. 8.20 and provides a cumulative distribution curve and results in terms of d10, d50 and d90.

Setting [3] is: made according to Example 13, not milled.
The mark [4] stands for this setting: made from Example 13, after milling (hammer mill, Example 14).

Read-outs that look alike come from different tables or passages of the source. Bounds are passed on as bounds.

`Cl.O=C(OC(C(F)(F)F)C(F)(F)F)N1CCN(Cc2ccc(C(F)(F)F)cc2N2CCCC2)CC1` [Compound I-HCl form 2, 1,1,1,3,3,3-hexafluoropropan-2-yl 4-(2-(pyrrolidin-1-yl)-4-(trifluoromethyl)benzyl)piperazine-1-carboxylate mono-hydrochloride salt Form 2]: in data set [1], the d10 particle size was at least 5 µm and the d90 particle size entry is “up to 300 μm”. Moreover, in data set [2] (setting [3]), the d10 particle size result was “d10 53.5 μm”, the d50 particle size result is “d50 133.1 μm” and the d90 particle size result is “d90 201.7 μm”. Besides, in data set [2] (setting [4]), the d10 particle size result is on record as “d10 24 μm”, the d50 particle size result was “d50 67 μm” and the d90 particle size entry was “d90 175 μm”.

The values are drawn from patent US11702393B2, “Synthesis of a monoacylglycerol lipase inhibitor” (H. LUNDBECK A/S, priority 2020, dated 2023).
